The results in this text go back to patent US20230373972A1, “PIPERAZINE DERIVATIVE, PREPARATION METHOD THEREFOR AND USE THEREOF” (Zhejiang Hisun Pharmaceutical Co., Ltd., priority 2020, published 2023).

The term IC50 denotes the point on the concentration scale where inhibition reaches its midpoint.

Assay [1] deals with T1, Native human Factor XIa protease (Homo sapiens, UniProt P03951).
T1 construct: The Native human Factor XIa protease was purchased from Abcam; purchased Abcam ab62411
The experiment in a line: Inhibition of activity of Factor XIa protease (chromogenic substrate S-2366). In kind it is biochemical. The settings on record: S-2366 1 mM, 37° C. 10 minutes, absorption at 405 nm. The text has this:
The following method was used to determine an inhibition degree of the compound of the present invention on an activity of Native human Factor XIa protease in vitro. In the method, a Factor XIa chromogenic substrate was used to test the inhibition degree on the activity of the Factor XIa protease. The Native human Factor XIa protease was purchased from Abcam (article number ab62411), and S-2366 was purchased from Chromogenix (article number 82109039). An experimental process was briefly described as follows: a test compound was dissolved in DMSO to prepare a 10 mM storage solution first, then the compound was diluted with a Factor XIa reaction buffer (100 mM Tris-HCl, 200 mM NaCl, 0.02% Tween 20, pH 7.4) by a quadruple gradient, and a final concentration of the test compound in a reaction system ranged from 10,000 nM to […]. The reaction was carried out in a 384-well microplate. 2 μL of the test compounds at different concentrations diluted with the reaction buffer were added to wells first, and 2 μL of 1% DMSO (a final concentration of DMSO in the reaction system was 0.1%) was used to replace blank and control wells. Subsequently, 8 μL of enzyme working solution (a final concentration of Factor XIa was […]) was added to each well, and 8 μL of Factor XIa reaction buffer was used to replace the blank well, centrifuged for 30 seconds, and incubated on ice for 5 minutes. Finally, 10 μL of substrate working solution (a final concentration of S-2366 was 1 mM) was added to each well, and centrifuged for 30 seconds, and the reaction was started. The solution was incubated at 37° C. for 10 minutes to determine a light absorption value at 405 nm. By comparing with a light absorption value of the control group (0.1% DMSO), a percentage inhibition rate of the compound at each concentration was calculated, and nonlinear regression analysis was carried out on value-inhibition rate with the concentration of the compound by GraphPad Prism 5 software, so as to obtain an IC50 value of the compound, as shown in Table 1.

Another assay deals with human plasma. Put plainly: In-vitro anticoagulation on human plasma (APTT kit, coagulation time). As to conditions: concentration of the compound when the coagulation time (APTT) was prolonged twice. As for the experimental part:
The following method was used to determine the in-vitro anticoagulation of the compound of the present invention in the human plasma. In the method, an APTT kit of the MediRox company was used to test. The APTT kit was purchased from MediRox (article number MRX930), and the human plasma was prepared internally.
The preparation of the human plasma was briefly described as follows: human plasma was collected in a blood collection tube containing sodium citrate, and centrifuged at 3,000 rpm for 10 minutes at room temperature, and plasma was collected, and packaged separately and stored at −80° C.
An APTT test process was briefly described as follows: a test compound was dissolved in DMSO to prepare a 10 mM storage solution first, then the test compound was diluted with DMSO by a triple gradient, and a final concentration of the test compound in a reaction system ranged from 217 μM to 0.03 μM. 4 μL, of test compounds at different concentrations diluted with DMSO were added to a centrifuge tube containing 180 μL of plasma, and 4 μL of DMSO was added to a blank group, shaken and mixed evenly, and incubated at 37° C. for 5 minutes. Subsequently, an APTT reagent was placed in a reagent holder according to instrument requirements, the incubated plasma sample was placed in a detection position of a coagulation analyzer, and a coagulation time was determined and recorded (s). With a final concentration of the compound as an abscissa and Ratio (Ratio=TiT0, wherein T0 was a coagulation time of a blank control, and Ti was a coagulation time of a compound to be tested) as an ordinate, a coagulation dose-effect curve was drawn by Graph Pad Prisms, and a concentration of the compound when the coagulation time was prolonged twice was calculated, which was namely a CT2 value, as shown in Table 2.

T1 sequence (P03951 388-625 limits assumed): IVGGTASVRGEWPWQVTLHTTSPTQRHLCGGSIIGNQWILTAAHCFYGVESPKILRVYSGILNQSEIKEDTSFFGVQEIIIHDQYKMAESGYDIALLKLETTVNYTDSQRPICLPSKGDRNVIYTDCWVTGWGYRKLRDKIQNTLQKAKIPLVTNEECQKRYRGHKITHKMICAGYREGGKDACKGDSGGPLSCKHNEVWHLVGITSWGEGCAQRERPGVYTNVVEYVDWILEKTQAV
T1 sequence (P03951 19-387 partner limits assumed): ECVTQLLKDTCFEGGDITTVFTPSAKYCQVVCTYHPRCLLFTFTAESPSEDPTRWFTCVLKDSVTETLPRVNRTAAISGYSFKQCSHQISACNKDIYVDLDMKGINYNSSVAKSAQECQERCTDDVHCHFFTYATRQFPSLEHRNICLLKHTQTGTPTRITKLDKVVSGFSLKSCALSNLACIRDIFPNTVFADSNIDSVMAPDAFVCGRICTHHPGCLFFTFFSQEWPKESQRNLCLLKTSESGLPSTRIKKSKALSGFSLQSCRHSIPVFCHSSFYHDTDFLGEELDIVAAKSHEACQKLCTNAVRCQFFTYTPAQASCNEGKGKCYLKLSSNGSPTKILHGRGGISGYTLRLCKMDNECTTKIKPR

The compound `Cn1cc2cc(NC(=O)C(Cc3ccc(C#N)cc3)N3CC(=O)N(c4cc(Cl)ccc4-n4cc(Cl)nn4)CC3=O)ccc2n1` (stereo not shown) [Example 115, 2-(4-(5-chloro-2-(4-chloro-1H-1,2,3-triazol-1-yl)phenyl)-2,5-dioxopiperazin-1-yl)-3-(4-cyanophenyl)-N-(2-methyl-2H-indazol-5-yl)propanamide] displayed an IC50 in assay [1] of 46.7 nM. Also, the “CT2” value in the assay with human plasma stood at 11.7 µM.
The like results for `O=C(Nc1ccc(N2CCOC2=O)cc1)C(Cc1ccccc1)N1CC(=O)N(c2cc(Cl)ccc2-n2cnnn2)CC1=O` (stereo not shown) [Example 14, 2-(4-(5-Chloro-2-(1H-tetrazol-1-yl)phenyl)-2,5-dioxopiperazin-1-yl)-N-(4-(2-oxooxazolidin-3-yl)phenyl)-3-phenylpropanamide] were, in that order, 44 nM and 14.3 µM.
The like results for `CNC(=O)c1ccc(NC(=O)C(Cc2ccccc2)N2CC(=O)N(c3cc(Cl)ccc3-n3cnnn3)CC2=O)cc1F` (stereo not shown) [Example 20, 4-(2-(4-(5-Chloro-2-(1H-tetrazol-1-yl)phenyl)-2,5-dioxopiperazin-1-yl)-3-phenylpropanamido)-2-fluoro-N-methylbenzamide] were, in that order, 30.5 nM and 8.6 µM.
In turn, `[2H]C([2H])([2H])n1cc2cc(NC(=O)C(Cc3ccccc3)N3CC(=O)N(c4cc(Cl)ccc4-n4cc(Cl)nn4)CC3=O)ccc2n1` (stereo not shown) [Example 109, 2-(4-(5-Chloro-2-(4-chloro-1H-1,2,3-triazol-1-yl)phenyl)-2,5-dioxopiperazin-1-yl)-N-(2-(methyl-d3)-2H-indazol-5-yl)-3-phenylpropanamide] displayed a 50% inhibitory concentration (IC50) in assay [1] of 12.7 nM. Also, in the assay with human plasma, the “CT2” value was 12.6 µM.
For `CN1Cc2cc(NC(=O)C(Cc3ccccc3)N3CC(=O)N(c4cc(Cl)ccc4-n4cnnn4)CC3=O)ccc2C1=O` (stereo not shown) [Example 12, 2-(4-(5-Chloro-2-(1H-tetrazol-1-yl)phenyl)-2,5-dioxopiperazin-1-yl)-N-(2-methyl-1-oxoisoindolin-5-yl)-3-phenylpropanamide], the IC50 in assay [1] was determined as 22.8 nM. The “CT2” value in the assay on human plasma was 4.4 µM.
For `[2H]C([2H])([2H])n1cc2cc(NC(=O)C(Cc3ccc(F)cc3)N3CC(=O)N(c4cc(Cl)ccc4-n4cc(Cl)nn4)CC3=O)ccc2n1` (stereo not shown) [Example 114, 2-(4-(5-chloro-2-(4-chloro-1H-1,2,3-triazol-1-yl)phenyl)-2,5-dioxopiperazin-1-yl)-3-(4-fluorophenyl)-N-(2-(methyl-d3)-2H-indazol-5-yl)propanamide], the IC50 in assay [1] is 48.6 nM. The “CT2” value with human plasma came out at 14.9 µM.
The like results for `CC(=O)c1ccc(NC(=O)C(Cc2ccccc2)N2CC(=O)N(c3cc(Cl)ccc3-n3cnnn3)CC2=O)cc1` (stereo not shown) [Example 17] were, in that order, 34.8 nM and 11.2 µM.
For `Cn1cc2cc(NC(=O)C(Cc3ccc(F)cc3)N3CC(=O)N(c4cc(Cl)ccc4-n4cnnn4)CC3=O)ccc2n1` (stereo not shown) [Example 41, 2-(4-(5-Chloro-2-(1H-tetrazol-1-yl)phenyl)-2,5-dioxopiperazin-1-yl)-3-(4-fluorophenyl)-N-(2-methyl-2H-indazol-5-yl)propanamide], in that order: 38.5 nM and 8.5 µM.
Compound `Cn1ccc(C[C@@H](C(=O)Nc2ccc3nn(C)cc3c2)N2CC(=O)N(c3cc(Cl)ccc3-n3cc(Cl)nn3)CC2=O)n1` [Example 112, (S)-2-(4-(5-chloro-2-(4-chloro-1H-1,2,3-triazole-1-yl)phenyl)-2,5-dioxopiperazin-1-yl)-3-(1-methyl-1H-pyrazole-3-yl)-N-(2-methyl-2H-indazol-5-yl)propionamide] came in with an IC50 in assay [1] of 25.6 nM. Besides, the “CT2” value in the assay on human plasma is 5.6 µM.
For `O=C1Cc2cc(NC(=O)C(Cc3ccccc3)N3CC(=O)N(c4cc(Cl)ccc4-n4cnnn4)CC3=O)ccc2N1` (stereo not shown) [Example 13, 2-(4-(5-Chloro-2-(1H-tetrazol-1-yl)phenyl)-2,5-dioxopiperazin-1-yl)-N-(2-oxoindolin-5-yl)-3-phenylpropanamide], in that order: 14.9 nM and 4.0 µM.
As to `NC(=O)c1ccc(NC(=O)C(Cc2ccccc2)N2CC(=O)N(c3cc(Cl)ccc3-n3cnnn3)CC2=O)cc1F` (stereo not shown) [Example 35, 4-(2-(4-(5-Chloro-2-(1H-tetrazol-1-yl)phenyl)-2,5-dioxopiperazin-1-yl)-3-phenylpropanamido)-2-fluorobenzamide], in assay [1], half-maximal inhibition (IC50) required 32 nM. Moreover, the “CT2” value with human plasma came out at 5.8 µM.
Regarding `O=C(Nc1ccc2nccnc2c1)C(Cc1ccccc1)N1CC(=O)N(c2cc(Cl)ccc2-n2cnnn2)CC1=O` (stereo not shown) [Example 18, 2-(4-(5-Chloro-2-(1H-tetrazol-1-yl)phenyl)-2,5-dioxopiperazin-1-yl)-3-phenyl-N-(quinoxalin-6-yl)propanamide], the IC50 in assay [1] was determined as 20.5 nM. Also, the “CT2” value in the assay on human plasma was found to be 7.9 µM.
For the compound `O=C(Nc1ccc2nn(C(F)F)cc2c1)C(Cc1ccccc1)N1CC(=O)N(c2cc(Cl)ccc2-n2cnnn2)CC1=O` (stereo not shown) [Example 34, 2-(4-(5-Chloro-2-(1H-tetrazol-1-yl)phenyl)-2,5-dioxopiperazin-1-yl)-N-(2-(difluoromethyl)-2H-indazol-5-yl)-3-phenylpropanamide], the IC50 in assay [1] was 10.4 nM. Besides, in the assay on human plasma, the “CT2” value was 5.9 µM.
The like results for `COc1ccc(CC(C(=O)Nc2ccc3nn(C)cc3c2)N2CC(=O)N(c3cc(Cl)ccc3-n3cc(Cl)nn3)CC2=O)cc1` (stereo not shown) [Example 108, 2-(4-(5-chloro-2-(4-chloro-1H-1,2,3-triazol-1-yl)phenyl)-2,5-dioxopiperazin-1-yl)-3-(4-methoxyphenyl)-N-(2-methyl-2H-indazol-5-yl)propanamide] were, in that order, 35.8 nM and 10.6 µM.
